How the values were obtained:
[1] = system: HepG2; assay: Antiproliferative activity against human HepG2 cells measured after 48 hrs by SRB assay; type: functional, cell-based; conditions: Homo sapiens, HepG2, 48 h
[2] = system: Bel-7402; assay: Antiproliferative activity against human Bel-7402 cells measured after 48 hrs by SRB assay; type: functional, cell-based; conditions: Homo sapiens, Bel-7402, 48 h
[3] = system: MCF7; assay: Antiproliferative activity against human MCF7 cells measured after 48 hrs by SRB assay; type: functional, cell-based; conditions: Homo sapiens, MCF7, 48 h
[4] = Acute toxicity in ip dosed Kunming mouse measured for 7 days; type: organism-based; conditions: in vivo, time 7 day
[5] = system: HepG2; assay: Antitumor activity against human HepG2 cells xenografted in BALB/c nude mouse assessed as tumor growth inhibition at 25 mg/kg, ip qod for 29 days by caliper method relative to control; type: functional; conditions: 696 h, time 29 day, read-out: TGI
[6] = Elimination half life in Sprague-Dawley rat at 2.5 mg/kg, iv; type: ADME, organism-based; conditions: in vivo, read-out: beta t1/2 (converted)
[7] = Volume of distribution at steady state in Sprague-Dawley rat at 2.5 mg/kg, iv; type: ADME, organism-based; conditions: in vivo, read-out: Vdss
[8] = AUC (0 to last) in Sprague-Dawley rat at 2.5 mg/kg, iv; type: ADME, organism-based; set-up: time 0 - last, route intravenous, dose 2.5 mg/kg; conditions: in vivo
[9] = MRT (0 to last) in Sprague-Dawley rat at 2.5 mg/kg, iv; type: ADME, organism-based; conditions: in vivo
[10] = Acute toxicity in po dosed Kunming mouse measured for 7 days; type: organism-based; conditions: in vivo, time 7 day
[11] = system: HepG2; assay: Antitumor activity against human HepG2 cells xenografted in BALB/c nude mouse assessed as reduction in tumor volume at 50 mg/kg administered for 29 days by caliper method relative to control; type: functional; set-up: scale not given: the % may be the effect or the level left; conditions: time 29 day
[12] = system: HepG2; assay: Antitumor activity against human HepG2 cells xenografted in BALB/c nude mouse assessed as reduction in tumor volume at 100 mg/kg administered for 29 days by caliper method relative to control; type: functional; set-up: scale not given: the % may be the effect or the level left; conditions: time 29 day
[13] = Toxicity in human HepG2 cells xenografted BALB/c nude mouse assessed as change in tumor weight at 50 to 100 mg/kg for 29 days; type: organism-based; conditions: in vivo, 696 h, dose 50-100 mg/kg, time 29 day
[14] = Cmax in Sprague-Dawley rat assessed as N-(2,6-dimethoxypyridin-3-yl)-7-hydroxy-9-methyl-9H-carbazole-3-sulfonamide level at 2.5 mg/kg, iv; type: ADME, organism-based; set-up: route intravenous, dose 2.5 mg/kg; conditions: in vivo
[15] = Tmax in Sprague-Dawley rat assessed as N-(2,6-dimethoxypyridin-3-yl)-7-hydroxy-9-methyl-9H-carbazole-3-sulfonamide level at 2.5 mg/kg, iv; type: ADME, organism-based; conditions: in vivo
[16] = Terminal half life in Sprague-Dawley rat assessed as N-(2,6-dimethoxypyridin-3-yl)-7-hydroxy-9-methyl-9H-carbazole-3-sulfonamide level at 2.5 mg/kg, iv; type: ADME, organism-based; conditions: in vivo
[17] = AUC (0 to last) in Sprague-Dawley rat assessed as N-(2,6-dimethoxypyridin-3-yl)-7-hydroxy-9-methyl-9H-carbazole-3-sulfonamide level at 2.5 mg/kg, iv; type: ADME, organism-based; set-up: route intravenous, time 0 - last, dose 2.5 mg/kg; conditions: in vivo
[18] = MRT (0 to last) in Sprague-Dawley rat assessed as N-(2,6-dimethoxypyridin-3-yl)-7-hydroxy-9-methyl-9H-carbazole-3-sulfonamide level at 2.5 mg/kg, iv; type: ADME, organism-based; conditions: in vivo
[19] = system: MDA-MB-231; assay: Antitumor activity against human MDA-MB-231 cells xenografted in BALB/c nude mouse assessed as reduction in tumor burden at 60 mg/kg, ip biw for 14 to 29 days relative to control; type: functional; set-up: scale not given: the % may be the effect or the level left; conditions: time 14-29 day
[20] = Toxicity in human MDA-MB-231 cells xenografted BALB/c nude mouse assessed as effect on body weight at 60 mg/kg, ip biw for 14 to 29 days measured every two days during compound dosing; type: organism-based; conditions: in vivo, time 14-29 day
[21] = system: HepG2; assay: Antitumor activity against GFP-labelled human HepG2 cells xenografted in BALB/c nude mouse assessed as tumor growth inhibition at 10 mg/kg, iv administered once per week for 29 days relative to control; type: functional; conditions: 696 h, time 29 day, read-out: TGI
[22] = Toxicity in GFP-labelled human HepG2 cells xenografted BALB/c nude mouse assessed as change in animal weight at 10 mg/kg, iv administered once per week for 29 days; type: organism-based; conditions: in vivo, 696 h, time 29 day
[23] = system: HepG2; assay: Antitumor activity against human HepG2 cells xenografted in BALB/c nude mouse assessed as tumor growth inhibition at 10 mg/kg, iv administered once per week for 29 days by caliper method relative to control; type: functional; set-up: scale not given: the % may be the effect or the level left; conditions: time 29 day
[24] = Acute toxicity in Kunming mouse assessed as survival at 100 mg/kg, iv measured for 7 days relative to control; type: organism-based; conditions: in vivo, time 7 day
[25] = Acute toxicity in Kunming mouse assessed as survival at 80 mg/kg, iv measured for 7 days relative to control; type: organism-based; conditions: in vivo, time 7 day
[26] = Acute toxicity in Kunming mouse assessed as survival at 60 mg/kg, iv measured for 7 days relative to control; type: organism-based; conditions: in vivo, time 7 day
[27] = Acute toxicity in Kunming mouse assessed as survival at 40 mg/kg, iv measured for 7 days relative to control; type: organism-based; conditions: in vivo, time 7 day
[28] = Acute toxicity in iv dosed Kunming mouse measured for 7 days; type: organism-based; conditions: in vivo, time 7 day
[29] = system: HepG2; assay: Antitumor activity against human HepG2 cells xenografted in BALB/c nude mouse assessed as tumor volume at 10 mg/kg, iv qod for 14 to 29 days measured on day 1 (reference value: 154.04 +/- 3120); type: functional; conditions: time 14-29 day
[30] = system: HepG2; assay: Antitumor activity against human HepG2 cells xenografted in BALB/c nude mouse assessed as tumor volume at 10 mg/kg, iv qod for 14 to 29 days measured on day 29 (reference value: 2,838.93 +/- 737.40); type: functional; conditions: time 14-29 day
[31] = system: HepG2; assay: Antitumor activity against human HepG2 cells xenografted in BALB/c nude mouse assessed as tumor growth inhibition at 10 mg/kg, iv qod for 14 to 29 days relative to control; type: functional; conditions: time 14-29 day, read-out: TGI
[32] = Toxicity in human HepG2 cells xenografted BALB/c nude mouse assessed as change in tumor weight at 10 mg/kg, iv qod for 14 to 29 days (reference value: 4.52 g); type: organism-based; conditions: in vivo, time 14-29 day
[33] = system: HepG2; assay: Antitumor activity against human HepG2 cells xenografted in BALB/c nude mouse assessed as tumor growth inhibition at 5 mg/kg, iv qod for 14 to 29 days relative to control; type: functional; conditions: time 14-29 day, read-out: TGI
[34] = system: HepG2; assay: Antitumor activity against GFP-labelled human HepG2 cells xenografted in BALB/c nude mouse assessed as tumor growth inhibition at 10 mg/kg, iv qod for 29 days relative to control; type: functional; conditions: 696 h, time 29 day, read-out: TGI
[35] = Toxicity in GFP-labelled human HepG2 cells xenografted BALB/c nude mouse assessed as change in animal weight at 10 mg/kg, iv qod for 29 days; type: organism-based; conditions: in vivo, 696 h, time 29 day

COc1ccc(NS(=O)(=O)c2ccc3c(c2)c2ccc(OP(=O)([O-])[O-])cc2n3C)c(OC)n1.[Na+].[Na+]
IC50 [1]: 19 nM | IC50 [2]: 60 nM | IC50 [3]: 16 nM | LD50 at 168 h [4]: 273 mg/kg | inhibition in vivo at 25 mg/kg [5]: 71.7% | half-life [6]: 43.2 min | Vd [7]: 0.24 L/kg | AUClast [8]: 18449 ng·h/mL | MRT last [9]: 10.2 min

COc1ccc(N(CCOP(=O)([O-])[O-])S(=O)(=O)c2ccc3c(c2)c2ccccc2n3C)c(OC)n1.[Na+].[Na+]
IC50 [1]: 1120 nM | IC50 [2]: 1970 nM | IC50 [3]: 1080 nM | LD50 at 168 h [10]: 273 mg/kg | Activity [11]: 54.5% | Activity [12]: 70.1% | Activity [13]: Non-Toxic

COc1ccc(NS(=O)(=O)c2ccc3c(c2)c2ccc(O)cc2n3C)c(OC)n1
IC50 [1]: 12 nM | IC50 [2]: 56 nM | IC50 [3]: 14 nM | Cmax [14]: 22333 ng/mL | Tmax [15]: 5 min | beta t1/2 [16]: 108 min | AUClast [17]: 15295 ng·h/mL | MRTlast [18]: 76.2 min

CC(=O)O[C@H]1C(=O)[C@@]2(C)[C@H]([C@H](OC(=O)c3ccccc3)[C@]3(O)C[C@H](OC(=O)[C@H](O)[C@@H](NC(=O)c4ccccc4)c4ccccc4)C(C)=C1C3(C)C)[C@]1(OC(C)=O)CO[C@@H]1C[C@@H]2O [PACLITAXEL]
Activity [19]: 36% | Activity [20]: Non-Toxic | inhibition in vivo at 10 mg/kg [21]: 99.4% | Activity [22]: Non-Toxic | Activity [23]: 59.6%

COc1ccc(N(CCN2CCN(C)CC2)S(=O)(=O)c2ccc3c(c2)c2ccccc2n3C)c(OC)n1
IC50 [1]: 4130 nM | IC50 [2]: 6060 nM | IC50 [3]: 15000 nM | survival at 168 h [24]: 16.7% | survival at 168 h [25]: 83.3% | survival at 168 h [26]: 100% | survival at 168 h [27]: 100% | LD50 at 168 h [28]: 89.5 mg/kg | Activity [29]: 92.29 mm3 | Activity [30]: 914.19 mm3 | inhibition in vivo at 10 mg/kg [31]: 48.3% | Activity [32]: 1.44 g | inhibition in vivo at 5 mg/kg [33]: 33.3% | inhibition in vivo at 10 mg/kg [34]: 60.2% | Activity [35]: Non-Toxic

— ChEMBL document CHEMBL4680211, “Synthesis and structure-activity relationship study of water-soluble carbazole sulfonamide derivatives as new anticancer agents” (Eur J Med Chem, 2020)
